Assay results reported in article PMC4301837, “Aldosterone synthase inhibition: cardiorenal protection in animal disease models and translation of hormonal effects to human subjects” (Journal of Translational Medicine, 2014).
Marks after values point to notes of the source that are not given here.

Tested on: healthy male volunteers
Experiment: Human pharmacodynamics, multiple-dose phase
[1] = LCI699 0.5 mg once daily, ANCOVA mean
[2] = LCI699 0.5 mg, Day 1, mean ± SEM
[3] = LCI699 1 mg once daily, ANCOVA mean
[4] = LCI699 3 mg once daily, ANCOVA mean

## N#Cc1ccc([C@H]2CCc3cncn32)c(F)c1 [LCI699]
[1]
  Plasma sodium, Δ Day7 vs baseline (Day −1): −1.71^‡ mEq/L
  Plasma sodium, Δ Day14 vs Day 7: +0.41 mEq/L
  Urinary potassium, Δ Day 1 vs baseline (Day −1): +9.2 mEq/24 h
  Urinary potassium, Δ Day 7 vs baseline (Day −1): +12.8 mEq/24 h
  Urinary potassium, Δ Day 14 vs Day 7: +20.2 mEq/24 h
  Urinary sodium, Δ Day 1 vs baseline (Day −1): +45.2^† mEq/24 h
  Urinary sodium, Δ Day 7 vs baseline (Day −1): +3.6 mEq/24 h
  Urinary sodium, Δ Day 14 vs Day 7: −25.5 mEq/24 h
LCI699 0.5 mg, Day 1
  change in 24 h urinary aldosterone levels from baseline: –39%
[2]
  reduction of 24 h urinary aldosterone: 39 ± 6%
  reduction of plasma aldosterone: 49 ± 3%
LCI699 0.5 mg, Day 6
  change in pre-dose plasma ACTH from baseline: −14.5%
LCI699 0.5 mg, Day 7
  increase in PRA from baseline: 106%
LCI699 0.5 mg, Day 14
  increase in PRA compared with baseline: 130%
LCI699 1 mg and 3 mg once daily, Day 14
  Mean pre-dose plasma aldosterone levels: 209 to 293 pg/mL
[3]
  Plasma potassium, Δ Day2 vs baseline (Day −1): +0.08 mEq/L
  Plasma potassium, Δ Day7 vs baseline (Day −1): +0.12* mEq/L
  Plasma potassium, Δ Day14 vs Day 7: −0.06 mEq/L
  Plasma sodium, Δ Day2 vs baseline (Day −1): −0.59 mEq/L
  Plasma sodium, Δ Day7 vs baseline (Day −1): −0.11 mEq/L
  Plasma sodium, Δ Day14 vs Day 7: −0.01 mEq/L
  Urinary potassium, Δ Day 1 vs baseline (Day −1): +9.7 mEq/24 h
  Urinary potassium, Δ Day 7 vs baseline (Day −1): +17.4* mEq/24 h
  Urinary potassium, Δ Day 14 vs Day 7: +4.2 mEq/24 h
  Urinary sodium, Δ Day 1 vs baseline (Day −1): +76.3^‡ mEq/24 h
  Urinary sodium, Δ Day 7 vs baseline (Day −1): +44.0 mEq/24 h
  Urinary sodium, Δ Day 14 vs Day 7: −3.6 mEq/24 h
LCI699 1 mg, Day 1
  change in 24 h urinary aldosterone levels from baseline: –39%
LCI699 1 mg, Day 6
  change in pre-dose plasma ACTH from baseline: −31.4%
LCI699 1 mg, Day 7
  change in 24 h urinary aldosterone levels from baseline: −12%
  increase in PRA from baseline: 277%
LCI699 1 mg, Day 14
  increase in PRA compared with baseline: 327%
[4]
  Plasma sodium, Δ Day2 vs baseline (Day −1): −0.73* mEq/L
  Plasma sodium, Δ Day7 vs baseline (Day −1): −2.87^‡ mEq/L
  Plasma sodium, Δ Day14 vs Day 7: −0.45 mEq/L
  Urinary potassium, Δ Day 1 vs baseline (Day −1): +2.9 mEq/24 h
  Urinary potassium, Δ Day 7 vs baseline (Day −1): +12.2 mEq/24 h
  Urinary sodium, Δ Day 1 vs baseline (Day −1): +64.0^‡ mEq/24 h
  Urinary sodium, Δ Day 7 vs baseline (Day −1): +22.2 mEq/24 h
  Urinary sodium, Δ Day 14 vs Day 7: −17.2 mEq/24 h
LCI699 3 mg, Day 1
  change in 24 h urinary aldosterone levels from baseline: –66%
LCI699 3 mg, Day 6
  change in pre-dose plasma ACTH from baseline: −15.6%
LCI699 3 mg, Day 7
  change in 24 h urinary aldosterone levels from baseline: −44%
  increase in PRA from baseline: 377%
  increase in trough 11-DOC levels from baseline: 228%
LCI699 3 mg, Day 14
  increase in PRA compared with baseline: 238%
LCI699 10 mg
  increase in pre-dose ACTH levels compared with baseline: 193%
LCI699 10 mg, Day 6
  increase in pre-dose plasma 11-deoxycortisol from baseline: 508%
LCI699 10 mg, Day 7, one subject (second subject no change)
  reduction in 24 h urinary cortisol: > 70%
LCI699 10 mg, data not shown
  plasma aldosterone following the 10 mg dose: No further reduction
LCI699 0.5 or 1 mg, Day 7
  change in trough 11-DOC levels: no change
LCI699 0.5–3 mg, Day 1, 7 or 14
  effect on plasma or 24 h urinary cortisol: no significant effect
